Source: PMC11335262 (Cellular and Molecular Life Sciences: CMLS, 2024)
Like-named read-outs stand apart in the source and are kept apart here.

Key:
α9α10^α9Nt–TM1TM2loop = α9α10^α9Nt–TM1TM2loop (Rattus norvegicus, UniProt P43144+Q9JLB5, A103S/A128E/A130V/A141L/A146S/A160Y/A165S/A191G/A194S/A236S/A237S/A238F/A257S/A39E/A49E/A97Q/C241V/D100R/D263A/E60Q/E85T/F249L/G169N/G178N/G188L/G99D/H138Y/H177Y/H180N/H259Y/H92T/I67K/K96D/L182V/L205H/L214I/L245I/L252F/L78A/N199D/N40D/P126S/P127S/P186N/P95R/Q125E/Q53A/R109D/R143T/R151K/R155V/R167Q/R185F/R187A/R203E/R210V/R211K/R212N/R233K/R35S/S129P/S131N/S159T/S192D/T124D/T189D/T215S/T42S/T54V/T87H/V136L/V142I/V184I/V197I/V240I/V75I); type: cell-based; conditions: 40 µM ACh; for ACh response, % of response at […] Ca^2+: Vhold -90
α9α10^α9Nt–TM2 = α9α10^α9Nt–TM2 (Rattus norvegicus, UniProt P43144+Q9JLB5, A103S/A128E/A130V/A141L/A146S/A160Y/A165S/A191G/A194S/A236S/A237S/A238F/A257S/A39E/A49E/A97Q/C241V/D100R/D263A/E60Q/E85T/F249L/G169N/G178N/G188L/G99D/H138Y/H177Y/H180N/H259Y/H92T/I284M/I67K/K96D/L182V/L205H/L214I/L245I/L252F/L278M/L285V/L78A/N199D/N40D/P126S/P127S/P186N/P95R/Q125E/Q53A/R109D/R143T/R151K/R155V/R167Q/R185F/R187A/R203E/R210V/R211K/R212N/R233K/R35S/S129P/S131N/S159T/S192D/T124D/T189D/T215S/T42S/T54V/T87H/V136L/V142I/V184I/V197I/V240I/V274I/V75I); type: cell-based; conditions: 30 µM ACh; for ACh response, % of response at […] Ca^2+: Vhold -90
α9α10E287Q = α9α10E287Q (Rattus norvegicus, UniProt P43144+Q9JLB5, E287Q); type: cell-based
homomeric α9 nAChR = conditions: cited from earlier work
α9α10^α9Nt = α9α10^α9Nt (Rattus norvegicus, UniProt P43144+Q9JLB5, A103S/A128E/A130V/A141L/A146S/A160Y/A165S/A191G/A194S/A39E/A49E/A97Q/D100R/E60Q/E85T/G169N/G178N/G188L/G99D/H138Y/H177Y/H180N/H92T/I67K/K96D/L182V/L205H/L214I/L78A/N199D/N40D/P126S/P127S/P186N/P95R/Q125E/Q53A/R109D/R143T/R151K/R155V/R167Q/R185F/R187A/R203E/R210V/R211K/R212N/R233K/R35S/S129P/S131N/S159T/S192D/T124D/T189D/T215S/T42S/T54V/T87H/V136L/V142I/V184I/V197I/V75I); type: cell-based; conditions: 10 µM ACh; for ACh response, % of response at […] Ca^2+: Vhold -90
α9α10^α9extra = α9α10^α9extra (Rattus norvegicus, UniProt P43144+Q9JLB5, A264D/A308T/A312F/A328P/E329N/F253L/F325Y/H335A/I246L/I275V/I304M/I310V/I323L/L250F/L309M/M279L/M285I/M319L/R331H/S258A/V286L/V320I/Y260H); type: cell-based; conditions: for ACh response, % of response at […] Ca^2+: Vhold -90
α9α10E201Q = α9α10E201Q (Rattus norvegicus, UniProt P43144+Q9JLB5, E201Q); type: cell-based
α9α10 nAChR = α9α10 nAChR (Rattus norvegicus, UniProt P43144+Q9JLB5); type: cell-based; conditions: 10 µM ACh; for ACh response, % of responses at […] Ca^2+: Vhold -90
α9α10E71Q = α9α10E71Q (Rattus norvegicus, UniProt P43144+Q9JLB5, E71Q); type: cell-based
α9α10^α9TM2TM3loop = α9α10^α9TM2TM3loop (Rattus norvegicus, UniProt P43144+Q9JLB5, A292S/P291A/S288I/S294N); type: cell-based; conditions: for ACh response, % of response at […] Ca^2+: Vhold -90
α9α10^α9Nt–TM2TM3loop = α9α10^α9Nt–TM2TM3loop (Rattus norvegicus, UniProt P43144+Q9JLB5); type: cell-based; conditions: for ACh response, % of response at […] Ca^2+: Vhold -90
[1] = read-out: Ca^2+ IC50, block of responses to 100 µM ACh

[Ca+2] [Ca^2+, Calcium]
modulation of ACh-evoked responses by extracellular Ca^2+ (in words) (α9α10^α9Nt–TM1TM2loop): potentiated by Ca^2+ up to 0.2 mM and blocked by higher concentrations | ACh response, % of response at […] Ca^2+ (α9α10^α9Nt–TM1TM2loop; 0.2 mM Ca^2+): 358.3 ± 32.4% | ACh response, % of response at […] Ca^2+ (α9α10^α9Nt–TM1TM2loop; 3 mM Ca^2+): 73.5 ± 9.3% | 0.2 / 0 Ca^2+ ratio of response amplitudes (α9α10^α9Nt–TM1TM2loop; +40 mV): 5.9 ± 2.6 | 0.2 / 0 Ca^2+ ratio of response amplitudes (α9α10^α9Nt–TM1TM2loop; -90 mV): 5.4 ± 2.4 | ACh response, % of response at […] Ca^2+ (α9α10^α9Nt–TM1TM2loop; nominally zero Ca^2+): 95.2 ± 18.8% | modulation of ACh-evoked responses by extracellular Ca^2+ (in words) (α9α10^α9Nt–TM2): potentiated by Ca^2+ up to 0.2 mM and blocked by higher concentrations | ACh response, % of response at […] Ca^2+ (α9α10^α9Nt–TM2; 0.2 mM Ca^2+): 322.0 ± 40.0% | ACh response, % of response at […] Ca^2+ (α9α10^α9Nt–TM2; 3 mM Ca^2+): 69.5 ± 7.6% | 0.2 / 0 Ca^2+ ratio of response amplitudes (α9α10^α9Nt–TM2; +40 mV): 2.8 ± 0.4 | 0.2 / 0 Ca^2+ ratio of response amplitudes (α9α10^α9Nt–TM2; -90 mV): 4.1 ± 0.2 | ACh response, % of response at […] Ca^2+ (α9α10^α9Nt–TM2; nominally zero Ca^2+): 132.4 ± 27.5% | modulation of ACh-evoked responses by extracellular Ca^2+ (in words) (α9α10E287Q; 20 µM ACh): not potentiated by Ca^2+ | ACh response, % of response at […] Ca^2+ (α9α10E287Q; 3 mM Ca^2+, 20 µM ACh): 67.6 ± 5.6% | 3 / 0 Ca^2+ ratio of response (α9α10E287Q; +40 mV, 20 µM ACh): 0.48 ± 0.04 | 3 / 0 Ca^2+ ratio of response (α9α10E287Q; -90 mV, 20 µM ACh): 0.26 ± 0.02 | IC50 (α9α10E287Q; read-out: Ca^2+ IC50, block of responses to 20 µM ACh): 300 ± 100 µM | ACh response, % of response at […] Ca^2+ (α9α10E287Q; zero Ca^2+, 20 µM ACh): 320.7 ± 97.4% | ACh response amplitude normalized to 0 mM Ca^2+ (Imax) (homomeric α9 nAChR; […] Ca^2+, 100 µM ACh, Vhold -70, homomeric α9): 5.63 ± 0.58% | modulation of ACh-evoked responses by extracellular Ca^2+ (in words) (homomeric α9 nAChR; rat α9 nAChRs): only blocked by this ion | IC50 (homomeric α9 nAChR; read-out: Ca^2+ IC50 (50% of response block), homomeric α9, -70 mV): 100 ± 10 µM | modulation of ACh-evoked responses by extracellular Ca^2+ (in words) (α9α10^α9Nt): potentiated by Ca^2+ up to 0.2 mM and blocked by higher concentrations | ACh response, % of response at […] Ca^2+ (α9α10^α9Nt; 0.2 mM Ca^2+): 225.8 ± 18.9% | ACh response, % of response at […] Ca^2+ (α9α10^α9Nt; 3 mM Ca^2+): 64.9 ± 5.9% | 0.2 / 0 Ca^2+ ratio of response amplitudes (α9α10^α9Nt; +40 mV): 2.5 ± 0.3 | 0.2 / 0 Ca^2+ ratio of response amplitudes (α9α10^α9Nt; -90 mV): 2.1 ± 0.4 | ACh response, % of response at […] Ca^2+ (α9α10^α9Nt; nominally zero Ca^2+): 115.2 ± 27.3% | modulation of ACh-evoked responses by extracellular Ca^2+ (in words) (α9α10^α9extra; 10 µM ACh): not potentiated by Ca^2+, and only blocked by increasing Ca^2+ concentrations | ACh response, % of response at […] Ca^2+ (α9α10^α9extra; 3 mM Ca^2+, 10 µM ACh): 72.3 ± 5.3% | 3 / 0 Ca^2+ ratio of response (α9α10^α9extra; +40 mV, 10 µM ACh): 0.60 ± 0.08 | 3 / 0 Ca^2+ ratio of response (α9α10^α9extra; -90 mV, 10 µM ACh): 0.20 ± 0.05 | IC50 (α9α10^α9extra; read-out: Ca^2+ IC50, block of responses to 10 µM ACh, -90 mV): 700 ± 200 µM | ACh response, % of response at […] Ca^2+ (α9α10^α9extra; zero Ca^2+, 10 µM ACh): 217.3 ± 6.3% | modulation of ACh-evoked responses by extracellular Ca^2+ (in words) (α9α10E201Q; 100 µM ACh): not potentiated by Ca^2+ | ACh response, % of response at […] Ca^2+ (α9α10E201Q; 3 mM Ca^2+, 100 µM ACh): 74.3 ± 11.2% | 3 / 0 Ca^2+ ratio of response (α9α10E201Q; +40 mV, 100 µM ACh): 0.53 ± 0.12 | 3 / 0 Ca^2+ ratio of response (α9α10E201Q; -90 mV, 100 µM ACh): 0.18 ± 0.05 | IC50 (α9α10E201Q; [1]): 900 ± 300 µM | ACh response, % of response at […] Ca^2+ (α9α10E201Q; zero Ca^2+, 100 µM ACh): 201.6 ± 39.7% | modulation of ACh-evoked responses by extracellular Ca^2+ (in words) (α9α10 nAChR): potentiated by sub-millimolar Ca^2+ concentrations | ACh response, % of responses at […] Ca^2+ (α9α10 nAChR; 0.5 mM Ca^2+ (maximum)): 142.98 ± 10.12% | ACh response, % of responses at […] Ca^2+ (α9α10 nAChR; nominally zero Ca^2+): 16.79 ± 6.47% | modulation of ACh-evoked responses by extracellular Ca^2+ (in words) (α9α10E71Q; 100 µM ACh): not potentiated by Ca^2+ | ACh response, % of response at […] Ca^2+ (α9α10E71Q; 3 mM Ca^2+, 100 µM ACh): 64.8 ± 2.7% | 3 / 0 Ca^2+ ratio of response (α9α10E71Q; +40 mV, 100 µM ACh): 1.05 ± 0.29 | 3 / 0 Ca^2+ ratio of response (α9α10E71Q; -90 mV, 100 µM ACh): 0.25 ± 0.05 | IC50 (α9α10E71Q; [1]): 800 ± 100 µM | ACh response, % of response at […] Ca^2+ (α9α10E71Q; zero Ca^2+, 100 µM ACh): 211.0 ± 35.6% | modulation of ACh-evoked responses by extracellular Ca^2+ (in words) (α9α10^α9TM2TM3loop; 50 µM ACh): not potentiated by extracellular Ca^2+, but instead blocked by this ion | ACh response, % of response at […] Ca^2+ (α9α10^α9TM2TM3loop; 3 mM Ca^2+, 50 µM ACh): 71.3 ± 5.2% | ACh response, % of response at […] Ca^2+ (α9α10^α9TM2TM3loop; 3 mM Ca^2+, sub-EC50 25 µM ACh): 46.3 ± 20.9% | 3 / 0 Ca^2+ ratio of response (α9α10^α9TM2TM3loop; +40 mV, 50 µM ACh): 0.74 ± 0.14 | 3 / 0 Ca^2+ ratio of response (α9α10^α9TM2TM3loop; -90 mV, 50 µM ACh): 0.14 ± 0.02 | ACh response, % of response at […] Ca^2+ (α9α10^α9TM2TM3loop; zero Ca^2+, 50 µM ACh): 401.0 ± 103.4% | ACh response, % of response at […] Ca^2+ (α9α10^α9TM2TM3loop; zero Ca^2+, sub-EC50 25 µM ACh): 668.7 ± 340.2% | modulation of ACh-evoked responses by extracellular Ca^2+ (in words) (α9α10^α9Nt–TM2TM3loop; 5 µM ACh): only blocked by increasing Ca^2+ concentrations | ACh response, % of response at […] Ca^2+ (α9α10^α9Nt–TM2TM3loop; 3 mM Ca^2+, 5 µM ACh): 108.1 ± 10.7% | 3 / 0 Ca^2+ ratio of response (α9α10^α9Nt–TM2TM3loop; +40 mV, 5 µM ACh): 1.2 ± 0.3 | 3 / 0 Ca^2+ ratio of response (α9α10^α9Nt–TM2TM3loop; -90 mV, 5 µM ACh): 0.20 ± 0.03 | IC50 (α9α10^α9Nt–TM2TM3loop; read-out: Ca^2+ IC50, block of responses to 5 µM ACh, -90 mV): 500 ± 100 µM | ACh response, % of response at […] Ca^2+ (α9α10^α9Nt–TM2TM3loop; zero Ca^2+, 5 µM ACh): 611.3 ± 91.2%
